Experimental findings from patent US20230365554A1, “SUBSTITUTED PYRROLO-PYRIDINONE DERIVATIVES AND THERAPEUTIC USES THEREOF” (The Broad Institute, Inc., priority 2020, published 2023) are described below.

“And” between values parts separate entries of the source, which are not always exact repeats. Equal values may be shown once.

The target of this assay is wild-type Epidermal Growth Factor Receptor (EGFR) (Homo sapiens (Human), UniProt P00533). As to the kind of experiment: WT-EGFR kinase assay (TR-FRET, 2 mM ATP). The conditions noted are these: median or individual measurements, Table 3, read-out: EGFR Wildtyp-2mM ATP IC50 [mol/l] (median). The assay is classed as biochemical. From the text: Inhibitory activity of compounds of the present invention against wild-type Epidermal Growth Factor Receptor (EGFR) was quantified employing the TR-FRET based EGFR assay as described in the following paragraphs.
wild-type Epidermal Growth Factor Receptor (EGFR), sequence (P00533 669-1210): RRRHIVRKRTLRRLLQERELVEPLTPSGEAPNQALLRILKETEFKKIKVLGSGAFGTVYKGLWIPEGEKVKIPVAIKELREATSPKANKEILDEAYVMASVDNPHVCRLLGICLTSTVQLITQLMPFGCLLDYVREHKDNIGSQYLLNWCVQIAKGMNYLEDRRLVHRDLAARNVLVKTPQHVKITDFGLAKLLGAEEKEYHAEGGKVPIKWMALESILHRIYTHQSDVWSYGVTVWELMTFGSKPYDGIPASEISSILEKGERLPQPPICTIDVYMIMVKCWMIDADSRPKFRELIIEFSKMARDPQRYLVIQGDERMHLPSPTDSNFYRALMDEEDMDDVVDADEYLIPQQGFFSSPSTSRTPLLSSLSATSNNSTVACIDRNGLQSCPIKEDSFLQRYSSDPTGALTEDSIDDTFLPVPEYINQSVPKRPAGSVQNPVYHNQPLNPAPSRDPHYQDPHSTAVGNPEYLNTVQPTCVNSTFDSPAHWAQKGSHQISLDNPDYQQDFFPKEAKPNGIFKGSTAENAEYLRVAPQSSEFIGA
Recombinant fusion protein of N-terminal Glutathion-S-Transferase (GST) and a fragment of human EGFR (amino acids R669 to A1210), expressed in Sf9 insect cells and purified via affinity chromatography using Glutathion Sepharose as described above, was used as kinase. As substrate for the kinase reaction the biotinylated peptide biotin-Ahx-AEEEEYFELVAKKK (C-terminus in amide form) was used which can be purchased e.g. form the company Biosynthan GmbH (Berlin-Buch, Germany).
For the assay 50 nl of a 100 fold concentrated solution of the test compound in DMSO was pipetted into either a black low volume 384 well microtiter plate or a black 1536 well microtiter plate (both Greiner Bio-One, Frickenhausen, Germany), 2 μL of a solution of EGFR in aqueous assay buffer [50 mM Hepes pH 7.0, 10 mM MgCl2, 1 mM dithiothreitol, 0.5 mM EGTA, 0.3 mM activated sodium ortho-vanadate, 0.005% (w/v) bovine serum albumin, 0.005% (v/v) Tween-20] were added and the mixture was incubated for 15 min at 22° C. to allow pre-binding of the test compounds to the enzyme before the start of the kinase reaction. Then the kinase reaction was started by the addition of 3 μL of a solution of adenosine-tri-phosphate (ATP, 3.33 mM=>final conc. in the 5 μL assay volume is 2 mM) and substrate (1.67 μM=>final conc. in the 5 μL assay volume is 1 μM) in assay buffer and the resulting mixture was incubated for a reaction time of 30 min at 22° C. The concentration of EGFR was adjusted depending of the activity of the enzyme lot and was chosen appropriate to have the assay in the linear range, typical concentration was 7.6 pg/μL. The reaction was stopped by the addition of 3 μL of a solution of HTRF detection reagents (83.3 nM streptavidine-XL665 [Cisbio Bioassays, Codolet, France] and 1.67 nM PT66-Tb-Cryptate, a terbium-cryptate labelled anti-phospho-tyrosine antibody from Cisbio Bioassays [instead of the PT66-Tb-cryptate PT66-Eu-Chelate from Perkin Elmer can also be used]) in an aqueous EDTA-solution (133.3 mM EDTA, 0.2% (w/v) bovine serum albumin in 50 mM HEPES pH 7.5).
The resulting mixture was incubated 1 h at 22° C. to allow the binding of the biotinylated phosphorylated peptide to the streptavidine-XL665 and the PT66-Tb-Cryptate. Subsequently the amount of phosphorylated substrate was evaluated by measurement of the resonance energy transfer from the PT66-Tb-Cryptate to the streptavidine-XL665. Therefore, the fluorescence emissions at 620 nm and 665 nm after excitation at 337 nm were measured in a HTRF reader, e.g. a Pherastar (BMG Labtechnologies, Offenburg, Germany) or a Viewlux (Perkin-Elmer). The ratio of the emissions at 665 nm and at […] was taken as the measure for the amount of phosphorylated substrate. The data were normalised (enzyme reaction without inhibitor=0% inhibition, all other assay components but no enzyme=100% inhibition).
For orientation: In TR-FRET formats the signal depends on donor and acceptor labels being close together.
Take `C[C@@H](C(=O)Nc1cc(-c2[nH]c3ccn(C)c(=O)c3c2Nc2ccccc2)ccn1)c1ccc(F)cc1` (single isomer, unassigned) [Example 27]: the IC50 is above 20 µM. The value for `CN1CC(CC(F)(F)F)c2[nH]c(-c3ccnc(NC(=O)C(CC(F)F)c4ccc(F)cc4)c3)c(Nc3cscn3)c2C1=O` (single isomer, unassigned) [Example 53, (2R or S)-4,4-difluoro-2-(4-fluorophenyl)-N-{4-[(7R or S)-5-methyl-4-oxo-3-[(1,3-thiazol-4-yl)amino]-7-(2,2,2-trifluoroethyl)-4,5,6,7-tetrahydro-1H-pyrrolo[3,2-c]pyridin-2-yl]pyridin-2-yl}butanamide] was above 20 µM. Turning to `CN1CC(CC2CC2)c2[nH]c(-c3ccnc(NC(=O)Cc4ccc(F)cc4)c3)c(Nc3cscn3)c2C1=O` (single isomer, unassigned) [Example 50, N-{4-[(7R or S)-7-(cyclopropylmethyl)-5-methyl-4-oxo-3-(1,3-thiazol-4-ylamino)-4,5,6,7-tetrahydro-1H-pyrrolo[3,2-c]pyridin-2-yl]pyridin-2-yl}-2-(4-fluorophenyl)acetamide], the IC50 was above 20 µM. For `CN1CC(CC2CC2)c2[nH]c(-c3ccnc(NC(=O)Cc4ccc(F)cc4)c3)c(Nc3ccccc3)c2C1=O` (single isomer, unassigned) [Example 20, N-{4-[3-anilino-7-(cyclopropylmethyl)-5-methyl-4-oxo-4,5,6,7-tetrahydro-1H-pyrrolo[3,2-c]pyridin-2-yl]pyridin-2-yl}-2-(4-fluorophenyl)acetamide], the IC50 was found to be 8 µM. The value for `CN1CC(CC(F)(F)F)c2[nH]c(-c3ccnc(NC(=O)Cc4ccc(F)cc4)c3)c(Nc3cscn3)c2C1=O` (single isomer, unassigned) [Example 48, 2-(4-fluorophenyl)-N-{4-[(7R or S)-5-methyl-4-oxo-3-(1,3-thiazol-4-ylamino)-7-(2,2,2-trifluoroethyl)-4,5,6,7-tetrahydro-1H-pyrrolo[3,2-c]pyridin-2-yl]pyridin-2-yl}acetamide] was above 20 µM. The value for `Cc1cc2[nH]c(-c3ccnc(NC(=O)C(CC(F)F)c4ccc(F)cc4)c3)c(Nc3ccccc3F)c2c(=O)n1C` (racemic) [Example 31, 4,4-difluoro-N-{4-[3-(2-fluoroanilino)-5,6-dimethyl-4-oxo-4,5-dihydro-1H-pyrrolo[3,2-c]pyridin-2-yl]pyridin-2-yl}-2-(4-fluorophenyl)butanamide] was above 20 µM. Then `CCC1CNC(=O)c2c1[nH]c(-c1ccnc(NC(=O)C(CC(F)F)c3ccc(F)cc3)c1)c2Nc1ccccc1` (centres unmarked) [Example 4, N-{4-[3-anilino-7-ethyl-4-oxo-4,5,6,7-tetrahydro-1H-pyrrolo[3,2-c]pyridin-2-yl]pyridin-2-yl}-4,4-difluoro-2-(4-fluorophenyl)butanamide], with 1.2 µM; and `Cc1cn(C)c(=O)c2c(Nc3ccccc3)c(-c3ccnc(NC(=O)C(C)c4ccc(F)cc4)c3)[nH]c12` (single isomer, unassigned) [Example 41, N-[4-(3-anilino-5,7-dimethyl-4-oxo-4,5-dihydro-1H-pyrrolo[3,2-c]pyridin-2-yl)pyridin-2-yl]-2-(4-fluorophenyl)propanamide], with 9.1 µM; and `CCc1c[nH]c(=O)c2c(Nc3ccccc3)c(-c3ccnc(NC(=O)C(CC(F)F)c4ccc(F)cc4)c3)[nH]c12` (racemic) [Example 5, N-[4-(3-anilino-7-ethyl-4-oxo-4,5-dihydro-1H-pyrrolo[3,2-c]pyridin-2-yl)pyridin-2-yl]-4,4-difluoro-2-(4-fluorophenyl)butanamide], with 7.3 µM.

For `CC1CN(C)C(=O)c2c1[nH]c(-c1ccnc(NC(=O)Cc3ccc(F)cc3)c1)c2Nc1ccccc1` (single isomer, unassigned; (-)) [Example 7, (−)-N-{4-[3-anilino-5,7-dimethyl-4-oxo-4,5,6,7-tetrahydro-1H-pyrrolo[3,2-c]pyridin-2-yl]pyridin-2-yl}-2-(4-fluorophenyl)acetamide], the IC50 was 1.3 µM. The value for `Cc1cn(C)c(=O)c2c(Nc3ccccc3)c(-c3ccnc(NC(=O)C(CC(F)F)c4ccc(F)cc4)c3)[nH]c12` (racemic) [Example 11, N-[4-(3-anilino-5,7-dimethyl-4-oxo-4,5-dihydro-1H-pyrrolo[3,2-c]pyridin-2-yl)pyridin-2-yl]-4,4-difluoro-2-(4-fluorophenyl)butanamide] was above 20 µM; that for `Cc1ccccc1Nc1c(-c2ccnc(NC(=O)Cc3ccc(F)cc3)c2)[nH]c2c(CC(F)(F)F)cn(C)c(=O)c12` [Example 33, 2-(4-fluorophenyl)-N-{4-[5-methyl-3-(2-methylanilino)-4-oxo-7-(2,2,2-trifluoroethyl)-4,5-dihydro-1H-pyrrolo[3,2-c]pyridin-2-yl]pyridin-2-yl}acetamide] was 0.007 µM.

Consider `Cc1cn(C)c(=O)c2c(Nc3ccccc3)c(-c3ccnc(NC(=O)C(C)c4ccc(F)cc4)c3)[nH]c12` (racemic) [Example 39, N-[4-(3-anilino-5,7-dimethyl-4-oxo-4,5-dihydro-1H-pyrrolo[3,2-c]pyridin-2-yl)pyridin-2-yl]-2-(4-fluorophenyl)propanamide], for which the IC50 was found to be 18 µM. With `CN1CC(CC(F)(F)F)c2[nH]c(-c3ccnc(NC(=O)Cc4ccc(F)cc4)c3)c(Nc3cscn3)c2C1=O` (racemic) [Example 46, 2-(4-fluorophenyl)-N-{4-[(7RS)-5-methyl-4-oxo-3-(1,3-thiazol-4-ylamino)-7-(2,2,2-trifluoroethyl)-4,5,6,7-tetrahydro-1H-pyrrolo[3,2-c]pyridin-2-yl]pyridin-2-yl}acetamide], the IC50 was above 20 µM. The value for `Cn1ccc2[nH]c(-c3ccnc(NC(=O)C(CC(F)F)c4ccc(F)cc4)c3)c(Nc3ccccc3)c2c1=O` (single isomer, unassigned) [Example 30, N-[4-(3-anilino-5-methyl-4-oxo-4,5-dihydro-1H-pyrrolo[3,2-c]pyridin-2-yl)pyridin-2-yl]-4,4-difluoro-2-(4-fluorophenyl)butanamide] was > 20 µM (2×) and 3.9 µM and 5.1 µM and 5.5 µM and 7.2 µM and 15 µM and 10 µM; that for `CN1CC(CC(F)(F)F)c2[nH]c(-c3ccnc(NC(=O)Cc4ccc(F)cc4)c3)c(Nc3ccccc3)c2C1=O` (racemic) [Example 14, N-{4-[3-anilino-5-methyl-4-oxo-7-(2,2,2-trifluoroethyl)-4,5,6,7-tetrahydro-1H-pyrrolo[3,2-c]pyridin-2-yl]pyridin-2-yl}-2-(4-fluorophenyl)acetamide] was 1.1 µM; that for `Cn1cc(CC(F)F)c2[nH]c(-c3ccnc(NC(=O)Cc4ccc(F)cc4)c3)c(Nc3ccccc3)c2c1=O` [Example 45, N-{4-[3-anilino-7-(2,2-difluoroethyl)-5-methyl-4-oxo-4,5-dihydro-1H-pyrrolo[3,2-c]pyridin-2-yl]pyridin-2-yl}-2-(4-fluorophenyl)acetamide] was 0.15 µM.
